Tested on: HSC-3 cells
Assay: Flow cytometric detection of apoptosis (Annexin V/PI)
Type: cell-based, human
Conditions: HSC-3, 24 h; cisplatin 50 µM, MPMs 5-20 µM
Procedure: HSC-3 and UT-SCC-24A cells were seeded, 300,000 cells/well, in 6-well plates and left to adhere overnight. The media was then removed and replaced by 2 ml complete DMEM/F-12 containing 5, 7.5, 10 or 20 µM of MPM-2:0, MPM-6:0, MPM-3:2 or MPM-4:2, or 50 µM cisplatin. Some cells were left untreated. The cells were then incubated for 24 h. Next, the cell supernatants were collected before the cells were trypsinized and spun down with the supernatants. For the staining, an apoptosis detection kit was used (#88-8005-74, Thermo Fisher Scientific). The cells were washed once in PBS and once in 1x binding buffer before being incubated with FITC labeled Annexin V diluted 1:25 in 1 × binding buffer for 15 min. Next the cells were washed in 1 × binding buffer before being incubated with PI diluted 1:100 in 1 × binding buffer for at least 5 min before analysis was performed on the LSR Fortessa (BD Biosciences, CA, United States). Analyses were performed in FlowJo™ v.10 (https://www.flowjo.com/).

N.N.[Cl][Pt][Cl] [Cisplatin, cisplatin, reference compound]
apoptotic (Annexin V+/PI−) population (in words): small, but clearly apoptotic (Annexin V+/PI−) population
